Values of other authors as cited in patent US20090318548A1, “PARA-QUINOL DERIVATIVES AND METHODS OF STEREO SELECTIVELY SYNTHESIZING AND USING SAME” (UNIVERSITY OF NORTHERN BRITISH COLUMBIA, priority 2006, published 2009).

Legend:
[1] = biological target: POLO-like kinase 1 (Plk1) enzyme (Homo sapiens, UniProt P53350)
Bacillus subtilis YycG = Bacillus subtilis YycG (Bacillus subtilis, UniProt Q45614); details: for inhibition of Bacillus subtilis YycG (comparative experiments): established antibiotics as comparators
Bacillus subtilis YycG, sequence (Q45614 whole entry): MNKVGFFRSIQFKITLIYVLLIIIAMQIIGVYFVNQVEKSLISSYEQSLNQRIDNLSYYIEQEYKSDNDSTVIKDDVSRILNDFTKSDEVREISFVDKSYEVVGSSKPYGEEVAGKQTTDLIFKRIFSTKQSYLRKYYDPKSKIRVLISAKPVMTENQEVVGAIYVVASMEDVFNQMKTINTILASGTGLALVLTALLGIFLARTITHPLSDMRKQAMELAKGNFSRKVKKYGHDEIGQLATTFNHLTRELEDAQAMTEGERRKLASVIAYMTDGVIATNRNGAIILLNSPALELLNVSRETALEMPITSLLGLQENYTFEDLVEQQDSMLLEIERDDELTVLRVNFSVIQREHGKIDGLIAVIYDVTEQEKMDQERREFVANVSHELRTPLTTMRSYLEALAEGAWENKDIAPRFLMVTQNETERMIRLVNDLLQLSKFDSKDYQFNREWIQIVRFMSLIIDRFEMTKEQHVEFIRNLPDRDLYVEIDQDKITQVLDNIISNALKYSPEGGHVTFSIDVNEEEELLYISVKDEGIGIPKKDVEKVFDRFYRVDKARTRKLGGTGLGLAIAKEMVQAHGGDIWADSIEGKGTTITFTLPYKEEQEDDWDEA

[2] = biological target: T1, YycG from Staphylococcus aureus (Staphylococcus aureus, UniProt Q2G2U4); details: read-out: IC50, inhibition of YycG
T1 sequence (Q2G2U4 1-608): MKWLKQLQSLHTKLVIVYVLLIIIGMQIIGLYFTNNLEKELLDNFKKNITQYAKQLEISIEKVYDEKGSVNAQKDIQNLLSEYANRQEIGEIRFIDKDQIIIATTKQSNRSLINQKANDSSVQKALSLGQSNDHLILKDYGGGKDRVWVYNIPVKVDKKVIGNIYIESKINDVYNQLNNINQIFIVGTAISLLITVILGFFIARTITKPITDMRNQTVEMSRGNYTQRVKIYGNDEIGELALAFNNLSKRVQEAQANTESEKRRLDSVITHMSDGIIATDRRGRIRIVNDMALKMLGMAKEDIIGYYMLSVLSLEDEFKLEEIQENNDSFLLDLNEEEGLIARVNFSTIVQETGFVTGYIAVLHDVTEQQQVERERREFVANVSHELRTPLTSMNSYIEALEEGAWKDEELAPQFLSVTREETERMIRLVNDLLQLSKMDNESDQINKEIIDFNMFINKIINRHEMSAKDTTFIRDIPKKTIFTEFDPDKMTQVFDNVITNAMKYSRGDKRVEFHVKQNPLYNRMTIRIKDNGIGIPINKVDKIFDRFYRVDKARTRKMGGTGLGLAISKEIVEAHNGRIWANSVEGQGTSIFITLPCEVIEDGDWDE

POLO-like kinase 1 (Plk1) enzyme, sequence (P53350 whole entry, species assumed): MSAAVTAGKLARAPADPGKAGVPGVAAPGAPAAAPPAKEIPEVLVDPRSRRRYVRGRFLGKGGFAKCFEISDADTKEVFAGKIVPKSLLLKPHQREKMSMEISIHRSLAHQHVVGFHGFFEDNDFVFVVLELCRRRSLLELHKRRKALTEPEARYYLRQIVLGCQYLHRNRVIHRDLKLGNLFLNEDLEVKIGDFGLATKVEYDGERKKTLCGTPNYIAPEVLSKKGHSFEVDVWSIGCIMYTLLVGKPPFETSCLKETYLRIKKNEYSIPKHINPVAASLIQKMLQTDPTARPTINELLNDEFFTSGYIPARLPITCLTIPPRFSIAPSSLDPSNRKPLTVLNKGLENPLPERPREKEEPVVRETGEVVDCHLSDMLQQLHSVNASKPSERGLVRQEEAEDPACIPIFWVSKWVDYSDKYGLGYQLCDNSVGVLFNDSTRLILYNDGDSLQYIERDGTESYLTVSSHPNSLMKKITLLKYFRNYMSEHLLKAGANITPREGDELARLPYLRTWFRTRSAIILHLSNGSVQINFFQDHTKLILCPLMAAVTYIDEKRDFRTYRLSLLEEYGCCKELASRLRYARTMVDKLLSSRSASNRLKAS

CCCCCCC(C)/C=C(C)/C=C/C(=O)NC1CC2(OC1O)C1OC1C(O)C1OC12 (stereo not drawn) [Aranorosinol A]
inhibition of Plk1 enzyme [1]: 118 µM

CCCCCCC(C)/C=C(C)/C=C/C(=O)N[C@H]1CC2(O[C@H]1O)[C@@H]1O[C@@H]1C(O)(CC(C)=O)[C@@H]1O[C@@H]12 (stereo partly drawn) [Aranorosinol B]
IC50 (Bacillus subtilis YycG; YycG from Bacillus subtilis, read-out: IC50, inhibition of YycG): 223 µM
IC50 [2]: 211 µM

NCC[C@H](O)C(=O)N[C@@H]1C[C@H](N)[C@@H](O[C@H]2O[C@H](CN)[C@@H](O)[C@H](O)[C@H]2O)[C@H](O)[C@H]1O[C@H]1O[C@H](CO)[C@@H](O)[C@H](N)[C@H]1O [amikacin]
inhibition of Bacillus subtilis YycG (comparative experiments) (Bacillus subtilis YycG): negligible inhibition

Cc1nnc(SCC2=C(C(=O)O)N3C(=O)[C@@H](NC(=O)Cn4cnnn4)[C@H]3SC2)s1 [cefazolin]
inhibition of Bacillus subtilis YycG (comparative experiments) (Bacillus subtilis YycG): negligible inhibition

CC[C@H]1OC(=O)[C@H](C)[C@@H](O[C@H]2C[C@@](C)(OC)[C@@H](O)[C@H](C)O2)[C@H](C)[C@@H](O[C@@H]2O[C@H](C)C[C@H](N(C)C)[C@H]2O)[C@](C)(O)C[C@@H](C)C(=O)[C@H](C)[C@@H](O)[C@]1(C)O [erythromycin]
inhibition of Bacillus subtilis YycG (comparative experiments) (Bacillus subtilis YycG): negligible inhibition
